Article PMC9694159 (International Journal of Molecular Sciences, 2022)
Several values for one entry are separate records, joined by “and”; a condition that tells them apart may be missing. Equal entries are not always repeated. Where two headings read alike, the source gives them in different places. Each block holds one compound with its values, some of them ahead of it.

How the values were obtained:
[1] = molecular target: T1, human serum albumin (HSA) (Homo sapiens, UniProt P02768); assay: UV-Vis spectroscopic studies: HSA-induced increase in the absorbance of Heme site ligands; assay type: binding; settings: for Higher binding constant by Hyperquad evaluation of UV-Vis data: compared with quenching studies and Scatchard plot evaluation; for Kd at 5 μM: human, human serum albumin (HSA) solution in PBS
T1 construct: purchased Merck (Darmstadt, Germany) A1653
Description: UV-Vis spectra were recorded in PBS (pH 7.4) at 25 °C, employing a Jasco V730 UV-Vis spectrophotometer (Tokyo, Japan). Absorption spectra of Heme site ligands (5.0 μM each) have been recorded without and with increasing concentrations of HSA (0.0, 0.2, 0.5, 0.7, 1.0, 1.5, 2.0, 5.0, 10, and 15 μM). Binding constants (K) of ligand–albumin complexes were determined based on the HSA-induced increase in their absorbance (at 480 nm for BIL, at 390 nm for BVD, at 400 nm for HEM, and at 460 nm for MO). […] Binding constants (K; unit: L/mol) were calculated with linear and non-linear fitting, using the Scatchard equation [58] and the Hyperquad2006 software, respectively. The Scatchard equation for 1:1 binding model follows:(1) (A−A0)/[HSA]0=(Aligand−HSA−A0)×K−(A−A0)×K where A0 and A are the absorbance values of the ligand in the absence and presence of HSA, respectively; Aligand-HSA is the absorbance when each ligand molecule bound to HSA, and [HSA] is the concentration of albumin (unit: mol/L).
The following equations are implemented in the Hyperquad program code: (2) aLIGAND+bHSA ↔LIGANDaHSAb (3) βab=[LIGANDaHSAb]/[LIGAND]^a[HSA]^b where a and b indicate the stoichiometry associated with the equilibria in the solution. All equilibrium constants are defined as overall association constants (β):(4) LIGAND+HSA ↔LIGAND HSA; β1=[LIGAND HSA]/[LIGAND][HSA] (5) 2 LIGAND+HSA ↔LIGAND2 HSA; β2=[LIGAND2HSA]/[LIGAND]^2[HSA] (6) aLIGAND+HSA ↔LIGANDaHSA; βa=[LIGANDaHSA]/[LIGAND]^a[HSA]
The stepwise association constants (K) are defined by β:(7) β1=K1; β2=K1×K2; βa=K1×K2×…×Ka
During data evaluation the stoichiometry and association constants of the ligand binding process were calculated using the lowest standard deviation model.

[2] = molecular target: T1, human serum albumin (HSA); assay: Fluorescence quenching of HSA by Heme site ligands; assay type: binding; settings: HSA 2 μM; for Fluorescence Quenching Stern–Volmer Plot logKSV: KSV unit L/mol; for Kd / Fluorescence Quenching Hyperquad logK: K unit L/mol; for Kd: read-out: Fluorescence Quenching Hyperquad logK (converted)
Description: Fluorescence spectra were recorded in PBS (pH 7.4) at 25 °C, employing a Hitachi F-4500 fluorometer (Tokyo, Japan). Binding constants of BIL, BVD, HEM, and MO were also determined based on fluorescence quenching studies (λex = 295 nm). Emission spectra of HSA (2.0 μM) were recorded in the absence and presence of the increasing concentrations of Heme site ligands (0.0, 0.5, 1.0, 2.0, 3.0, 5.0, 7.0, 10, and 15 μM). Before the evaluation of emission intensity data at 340 nm, the inner-filter effect of ligand molecules was corrected using the following equation [60, 61]:(8) Icor=Iobs×e^(Aex+Aem)/2 where Icor and Iobs are the corrected and observed fluorescence emission intensities, respectively; Aex and Aem are the absorbance values of Heme site ligands at 295 and 340 nm, respectively.

HSA = settings: cited from earlier work
WAR–HSA complex = molecular target: T2, WAR–HSA complex (Homo sapiens, UniProt P02768); assay: Effects of ligands on the fluorescence emission signal of WAR–HSA complex; assay type: binding; settings: WAR 1 μM, HSA 3.5 μM, PBS pH 7.4, λex 317 nm; for Effect on the fluorescence emission signal of WAR (WAR–HSA complex): ligand 0–10 μM, λem 379 nm
T2 construct: purchased Merck (Darmstadt, Germany) A1653

WAR–HSA interaction [3] = molecular target: T3, WAR–HSA interaction (Homo sapiens, UniProt P02768); assay: Ultrafiltration: filtered fraction of WAR in the presence of HSA and ligands; assay type: binding; settings: WAR 1.0 μM, HSA 5.0 μM
T3 construct: purchased Merck (Darmstadt, Germany) A1653
Description: Amicon Ultra-0.5 centrifugal filters (Merck, Darmstadt, Germany) with 30 kDa molecular weight cut-off (MWCO) value were applied. […] Before ultrafiltration, filter units were washed once with water (500 μL) then once with PBS (500 μL). […] A 500 μL aliquot of samples was transferred to the filter and centrifuged for 10 min at 7500 g and 25 °C (fixed angle rotor).
(§1) Chromatographic data were evaluated employing ChromNAV2 software (Jasco, Tokyo, Japan). […] Briefly, samples (20 μL) were driven through a guard column (SecurityGuard C18, 4.0 × 3.0 mm; Phenomenex, Torrance, CA, USA) linked to a Nova-Pak C18 analytical column (150 × 3.9 mm, 4 μm; Waters, Milford, MA, USA). The isocratic elution was performed at room temperature with 1.0 mL/min flow rate applying sodium phosphate buffer (20 mM, pH 7.0), methanol, and acetonitrile (70:25:5 v/v%) as the mobile phase.

WAR–HSA interaction [4] = molecular target: T3, WAR–HSA interaction; assay: Ultracentrifugation: WAR in the supernatant in the presence of HSA and BIL or MO; assay type: binding; settings: WAR 1.0 μM, HSA 3.0 μM, ligand 5 or 20 μM, PBS pH 7.4; 170,000× g, 16 h, 20 °C; HPLC-FLD
Description: With the optimal conditions of ultracentrifugation, we can sediment the albumin fraction of a solution without the disruption of ligand–HSA interactions. Consequently, the free fraction of a ligand can be quantified from the supernatant. […] In 11 × 34 mm PC tubes (Beckman Coulter, Brea, CA, USA), a 900 μL aliquot of samples was centrifuged for 16 h at 170,000× g and 20 °C applying a Beckman Coulter Optima MAX-XP tabletop ultracentrifuge (with MLA-130 fixed-angle rotor). Then a 200 μL volume of the supernatant was carefully removed and directly analyzed by HPLC-FLD (see in Section 3.6).
as §1, with “We applied an integrated HPLC system (Jasco, Tokyo, Japan) built up from an autosampler (AS-4050), a binary pump (PU-4180), and a fluorescence detector (FP-920). Chromatographic” for “Chromatographic”

[5] = cited from earlier work
[6] = linear fitting, K unit L/mol, ligand 5 μM, HSA 0–15 μM, PBS pH 7.4, 25 °C, mean ± SEM, read-out: UV-Vis Spectroscopy Scatchard Plot logK (converted)
[7] = non-linear fitting, K unit L/mol, ligand 5 μM, HSA 0–15 μM, PBS pH 7.4, 25 °C, mean ± SEM, read-out: UV-Vis Spectroscopy Hyperquad logK (converted)
[8] = linear fitting, whole ligand range 0–15 μM, PBS pH 7.4, λex 295 nm, λem 340 nm, mean ± SEM
[9] = non-linear fitting, whole ligand range 0–15 μM, PBS pH 7.4, mean ± SEM
[10] = evaluated in the 0.5–3 µM concentration range, PBS pH 7.4
[11] = evaluated in the 3–15 µM concentration range, PBS pH 7.4
[12] = ligand 0–20 μM, PBS pH 7.4, 30 kDa MWCO, HPLC-FLD

T2 sequence (P02768 25-609, one chain of several): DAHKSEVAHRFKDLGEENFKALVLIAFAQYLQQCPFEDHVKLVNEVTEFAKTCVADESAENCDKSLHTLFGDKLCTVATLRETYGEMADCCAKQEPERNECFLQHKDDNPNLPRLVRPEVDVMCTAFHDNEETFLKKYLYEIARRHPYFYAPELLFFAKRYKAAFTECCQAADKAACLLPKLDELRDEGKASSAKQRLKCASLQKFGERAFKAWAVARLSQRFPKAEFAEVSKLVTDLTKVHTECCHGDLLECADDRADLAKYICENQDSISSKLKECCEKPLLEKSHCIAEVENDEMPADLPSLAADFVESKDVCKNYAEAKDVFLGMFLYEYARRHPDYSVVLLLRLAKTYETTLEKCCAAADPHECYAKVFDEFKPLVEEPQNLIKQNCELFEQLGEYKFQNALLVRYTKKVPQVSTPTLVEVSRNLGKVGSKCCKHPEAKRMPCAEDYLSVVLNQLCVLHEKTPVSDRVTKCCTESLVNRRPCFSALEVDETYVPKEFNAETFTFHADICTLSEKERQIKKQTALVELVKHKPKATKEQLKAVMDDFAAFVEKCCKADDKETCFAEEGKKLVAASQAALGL
T1 sequence (P02768 25-609): as the sequence (P02768 25-609, one chain of several) above
T3 sequence (P02768 25-609): as the sequence (P02768 25-609, one chain of several) above

- Kd [1, 6]: 11000 nM
- Kd [1, 7]: 2820 nM
- Fluorescence Quenching Stern–Volmer Plot logKSV [2, 8]: 5.37 ± 0.03
- Kd [2, 9]: 3.55 µM
- Effect on the fluorescence emission signal of WAR (WAR–HSA complex) (WAR–HSA complex): strongly reduced
Compound: C=CC1=C(C)/C(=C/C2=NC(=C\c3[nH]c(/C=C4\NC(=O)C(C)=C4C=C)c(C)c3CCC(=O)O)/C(CCC(=O)O)=C2C)NC1=O [BVD, biliverdin]
- logK of the BVD–HSA complex (HSA; K in L/mol): ≈ 6
- binding constant of the BVD–HSA complex (HSA): approximately 10^6 L/mol

- Effect on the filtered fraction of WAR (ultrafiltration) (WAR–HSA interaction [3]; ligand 1–5 μM): decreased
- Effect on the filtered fraction of WAR (ultrafiltration) (WAR–HSA interaction [3]; ligand 10 and 20 μM): gradual elevation
- Higher binding constant by Hyperquad evaluation of UV-Vis data [1]: approximately 100 fold
- UV-Vis Spectroscopy Scatchard Plot logK ([1]; linear fitting, K unit L/mol, ligand 5 μM, HSA 0–15 μM, PBS pH 7.4, 25 °C, mean ± SEM): 5.74 ± 0.04
- UV-Vis Spectroscopy Hyperquad logK ([1]; non-linear fitting, K unit L/mol, ligand 5 μM, HSA 0–15 μM, PBS pH 7.4, 25 °C, mean ± SEM): 7.4 and 7.35 ± 0.03
- Fluorescence Quenching Hyperquad logK [2, 10]: 5.34 ± 0.01
- Fluorescence Quenching Stern–Volmer Plot logKSV [2, 10]: 5.23 ± 0.02
- Fluorescence Quenching Hyperquad logK [2, 11]: 5.53 ± 0.02
- Fluorescence Quenching Stern–Volmer Plot logKSV [2, 11]: 5.55 ± 0.03
- Fluorescence Quenching Stern–Volmer Plot logKSV [2, 8]: 5.54 ± 0.02
- Fluorescence Quenching Hyperquad logK [2, 9]: 5.49 ± 0.02
- Effect on the fluorescence emission signal of WAR (WAR–HSA complex) (WAR–HSA complex): strongly reduced
Compound: hemin

Compound: C=CC1=C(C)c2cc3[n-]c(cc4[n-]c(cc5nc(cc1n2)C(C)=C5C=C)c(C)c4CCC(=O)O)c(CCC(=O)O)c3C.[Fe+2] [heme]
- Effect on the binding affinity of certain Site I ligands toward HSA (HSA; Site I ligands: abacavir, efavirenz, zidovudine, furosemide, indomethacin, phenylbutazone): strongly decrease
- Effect on the binding constant of the WAR–HSA complex (HSA): only slightly reduced

- Effect on the unbound fraction of WAR in the supernatant (ultracentrifugation) (WAR–HSA interaction [4]): considerably decreased
- Effect on the filtered fraction of WAR (ultrafiltration) (WAR–HSA interaction [3]; ligand 1 μM): significantly reduced
- Effect on the filtered fraction of WAR (ultrafiltration) (WAR–HSA interaction [3]; ligand 2–20 μM): further gradual decrease
- Kd at 5 μM ([1]; pH 7.4, linear fitting, K unit L/mol, ligand 5 μM, HSA 0–15 μM, PBS pH 7.4, 25 °C, mean ± SEM, read-out: UV-Vis Spectroscopy Scatchard Plot logK (converted)): 64.6 µM
- Kd at 5 μM ([1]; pH 7.4, non-linear fitting, K unit L/mol, ligand 5 μM, HSA 0–15 μM, PBS pH 7.4, 25 °C, mean ± SEM, read-out: UV-Vis Spectroscopy Hyperquad logK (converted)): 18.2 µM
- Kd ([2]; human, human serum albumin (HSA) solution in PBS, non-linear fitting, whole ligand range 0–15 μM, PBS pH 7.4, mean ± SEM): 14.8 µM
- Fluorescence Quenching Stern–Volmer Plot logKSV [2, 8]: 4.76 ± 0.02
- Effect on the fluorescence emission signal of WAR (WAR–HSA complex) (WAR–HSA complex): strongly reduced
Compound: CN(C)c1ccc(/N=N/c2ccc(S(=O)(=O)O)cc2)cc1 [MO, methyl orange]
- logK of the MO–HSA complex (HSA; K in L/mol): 5.4
- binding constant of the MO–HSA complex (HSA): 230000 L/mol

Compound: CC(=O)CC(c1ccccc1)c1c(O)c2ccccc2oc1=O (stereo not drawn) [WAR, warfarin]
- binding constant (K) of WAR–HSA complex (HSA; spectroscopic, affinity chromatography and ultracentrifugation experiments): approximately 2 × 10^5 L/mol
- plasma protein binding [5]: ≈ 99%

- Effect on the unbound fraction of WAR in the supernatant (ultracentrifugation) (WAR–HSA interaction [4]): significantly increased
- Effect on the filtered fraction of WAR (ultrafiltration) (WAR–HSA interaction [3]; [12]): strongly increased
- Effect on albumin binding of WAR (ultrafiltration) (WAR–HSA interaction [3]; ligand 5 μM): disrupted
- Effect on albumin binding of WAR (ultrafiltration) (WAR–HSA interaction [3]; ligand 20 μM): almost completely abolished
- Higher binding constant by Hyperquad evaluation of UV-Vis data [1]: approximately 100 fold
- Kd [1, 6]: 1480 nM
- Kd [1, 7]: 29.5 nM
- Fluorescence Quenching Stern–Volmer Plot logKSV [2, 8]: 5.26 ± 0.01
- Kd [2, 9]: 4.47 µM
- Effect on the fluorescence emission signal of WAR (WAR–HSA complex) (WAR–HSA complex): strongly reduced
Compound: C=CC1=C(C)/C(=C/c2[nH]c(Cc3[nH]c(/C=C4\NC(=O)C(C)=C4C=C)c(C)c3CCC(=O)O)c(CCC(=O)O)c2C)NC1=O [BIL, bilirubin]

- Effect on the filtered fraction of WAR (ultrafiltration) (WAR–HSA interaction [3]; [12]): decreased
- Increase in the emission intensity at 379 nm (WAR–HSA complex) (WAR–HSA complex; fatty acid 0–10 μM): ~2.5 fold
Compound: CCCCCCCCCCCCCCCCCC(=O)O [stearic acid]
